The test addresses T1, renin (Homo sapiens, UniProt P00797).
T1 construct: This test measures the formation of angiotensin I in human plasma; from tissue; host or cells: human plasma
T1 sequence (P00797 67-406): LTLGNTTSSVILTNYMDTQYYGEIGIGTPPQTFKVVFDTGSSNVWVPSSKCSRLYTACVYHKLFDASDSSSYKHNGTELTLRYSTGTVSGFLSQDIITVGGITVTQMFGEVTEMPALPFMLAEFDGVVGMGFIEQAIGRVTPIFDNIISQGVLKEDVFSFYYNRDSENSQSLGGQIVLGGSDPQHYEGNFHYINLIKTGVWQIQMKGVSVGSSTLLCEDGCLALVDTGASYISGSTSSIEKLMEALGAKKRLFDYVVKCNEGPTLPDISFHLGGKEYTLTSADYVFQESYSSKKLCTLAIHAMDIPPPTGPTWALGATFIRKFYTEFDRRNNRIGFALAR
In words: in vitro test of Nussberger et al.: formation of angiotensin I in human plasma, determined by radioimmunoassay. Particulars: concentration of inhibitor which reduces the formation of angiotensin I in human plasma by 50%. The class given is biochemical. On the procedure:
The effect of renin inhibitors is detected inter alia experimentally by means of in vitro tests where the reduction in the formation of angiotensin I is measured in various systems (human plasma, purified human renin together with synthetic or natural renin substrate). The following in vitro test of Nussberger et al. (1987) J. Cardiovascular Pharmacol., Vol. 9, pp. 39-44, is used inter alia. This test measures the formation of angiotensin I in human plasma. The amount of angiotensin I formed is determined in a subsequent radioimmunoassay. The effect of inhibitors on the formation of angiotensin I is tested in this system by adding various concentrations of these substances. The IC50 is defined as the concentration of the particular inhibitor which reduces the formation of angiotensin I by 50%. The compounds of the present invention show inhibitory effects in the in vitro systems at minimal concentrations of about 10^−6 to about 10^−10 mol/l.
For `COCCCN1CCOc2ccc(CO[C@H]3CNCC[C@]3(OCCOC)c3ccc(COCCOC)cc3)cc21` [Example 1, 6-{(3S,4S)-4-(2-Methoxy-ethoxy)-4-[4-(2-methoxy-ethoxymethyl)-phenyl]-piperidine-3-yloxymethyl}-4-(3-methoxy-propyl)-3,4-dihydro-2H-benzo[1,4]oxazine], the IC50 (commonly the concentration that gives 50% inhibition) turned out to be 26.5 nM.
Compound `COCCCN1CCOc2ccc(CO[C@H]3CNCC[C@]3(OCC#N)c3ccc(COC[C@@H](C)COC)cc3)cc21` [Example 12, {(3S,4S)-4-[4-((S)-3-Methoxy-2-methyl-propoxymethyl)-phenyl]-3-[4-(3-methoxy-propyl)-3,4-dihydro-2H-benzo[1,4]oxazin-6-ylmethoxy]-piperidin-4-yloxy}-acetonitrile] gave an IC50 of 7.5 nM.
Compound `COCCCN1CCOc2ccc(CO[C@H]3CNCC[C@]3(OC[C@@H](O)COC)c3ccc(COCCOC)cc3)cc21` [Example 3, (S)-1-Methoxy-3-{(3S,4S)-4-[4-(2-methoxy-ethoxymethyl)-phenyl]-3-[4-(3-methoxy-propyl)-3,4-dihydro-2H-benzo[1,4]oxazin-6-ylmethoxy]-piperidin-4-yloxy}-propan-2-ol] gave an IC50 of 9.5 nM.
Turning to `COCCCN1CCOc2ccc(CO[C@H]3CNCC[C@]3(OC[C@H](O)COC)c3ccc(COCCOC)cc3)cc21` [Example 2, (R)-1-Methoxy-3-{(3S,4S)-4-[4-(2-methoxy-ethoxymethyl)-phenyl]-3-[4-(3-methoxy-propyl)-3,4-dihydro-2H-benzo[1,4]oxazin-6-ylmethoxy]-piperidin-4-yloxy}-propan-2-ol], the IC50 was determined as 10.4 nM.
Regarding `COCCCN1CCOc2ccc(CO[C@H]3CNCC[C@]3(OCC3CCCC3)c3ccc(COCCOC)cc3)cc21` [Example 5, 6-{(3S,4S)-4-Cyclopentylmethoxy-4-[4-(2-methoxy-ethoxymethyl)-phenyl]-piperidin-3-yloxymethyl}-4-(3-methoxy-propyl)-3,4-dihydro-2H-benzo[1,4]oxazine], the IC50 was 92.5 nM.
As for `COCCCO[C@]1(c2ccc(COC[C@@H](C)COC)cc2)CCNC[C@@H]1OCc1ccc2c(c1)N(CCCOC)CCO2` [Example 10, 6-[(3S,4S)-4-[4-((S)-3-Methoxy-2-methyl-propoxymethyl)-phenyl]-4-(3-methoxy-propoxy)-piperidin-3-yloxymethyl]-4-(3-methoxy-propyl)-3,4-dihydro-2H-benzo[1,4]oxazine], half-maximal inhibition (IC50) required 3 nM.
